Experiments:
[1] = system: A549 lung adenocarcinoma cells; experiment: Amino acid uptake and inhibition in A549 cells; type: cell-based, human; conditions: A549, 30 minutes incubation
[2] = system: DU145 androgen-independent prostate carcinoma cells; experiment: Amino acid uptake and inhibition in DU145 cells; type: cell-based, human; conditions: DU145, 30 minutes incubation
U87 glioblastoma cells = experiment: Amino acid uptake and inhibition in U87 cells; type: cell-based, human; conditions: for Cell uptake: U87, 30 minutes incubation
[3] = system: SKOV3 estrogen-positive ovarian adenocarcinoma cells; experiment: Amino acid uptake and inhibition in SKOV3 cells; type: cell-based, human; conditions: for Cell uptake: SKOV3, 30 minutes incubation
A549 tumor xenograft = experiment: Biodistribution in A549 tumor-bearing SCID mice; type: in vivo; conditions: listed as (R)-[^18F] FAMP 1
U87 tumor xenograft = experiment: Biodistribution in U87 tumor-bearing SCID mice; type: in vivo; conditions: listed as (R)-[^18F] FAMP 1
[4] = system: MDA MB468 tumor xenograft; experiment: Biodistribution in MDA MB468 tumor-bearing SCID mice; type: in vivo
[5] = system: human A549, DU145, U87, MDA MB468 and SKOV3 tumor cells; experiment: Amino acid uptake and inhibition, summary over the five tumor cell lines; type: cell-based
[6] = system: SCID mice xenograft tumor models; type: in vivo; conditions: in most cases, over tumors and time points
[7] = 15 min post injection, listed as (R)-[^18F] FAMP 1
[8] = 30 min post injection, listed as (R)-[^18F] FAMP 1
[9] = 60 min post injection, listed as (R)-[^18F] FAMP 1
[10] = 120 min post injection, listed as (R)-[^18F] FAMP 1

## CC(N)(C[18F])C(=O)O [(R)-[^18F]1] [2-amino-3-[^18F]fluoro-2-methylpropanoic acid]
[1]; 10 mM BCH
  Cell uptake: 2.3±0.3 % ID/5×10^5 cells
[1]; 10 mM MeAIB
  Cell uptake: 4.6±0.5 % ID/5×10^5 cells
[1]; Control (no inhibitor)
  Cell uptake: 5.1±0.3 % ID/5×10^5 cells
[2]; 10 mM BCH
  Cell uptake: 3.3±0.2 % ID/5×10^5 cells
[2]; 10 mM MeAIB
  Cell uptake: 3.6±0.2 % ID/5×10^5 cells
[2]; Control (no inhibitor)
  Cell uptake: 5.1±0.1 % ID/5×10^5 cells
U87 glioblastoma cells; 10 mM BCH
  Cell uptake: 4.8±0.3 % ID/5×10^5 cells
U87 glioblastoma cells; 10 mM MeAIB
  Cell uptake: 2.0±0.3 % ID/5×10^5 cells
U87 glioblastoma cells; Control (no inhibitor)
  Cell uptake: 6.0±0.3 % ID/5×10^5 cells
U87 glioblastoma cells; U87 cells, 10 mM BCH, relative to control
  inhibition of uptake by BCH: 20%
U87 glioblastoma cells; U87 cells, 10 mM MeAIB, relative to control
  inhibition of uptake by MeAIB: 67%
[3]; 10 mM BCH
  Cell uptake: 7.6±0.2 % ID/5×10^5 cells
[3]; 10 mM MeAIB
  Cell uptake: 4.6±0.1 % ID/5×10^5 cells
[3]; Control (no inhibitor)
  Cell uptake: 9.2±0.2 % ID/5×10^5 cells
[3]; SKOV3 cells, 10 mM BCH, relative to control
  inhibition of uptake by BCH: 17%
[3]; SKOV3 cells, 10 mM MeAIB, relative to control
  inhibition of uptake by MeAIB: 50%
A549 tumor xenograft; 15 min post injection
  uptake in blood: 2.9±0.4 %ID/g
  uptake in bone: 2.6±0.6 %ID/g
  uptake in brain: 0.8±0.2 %ID/g
  uptake in heart: 4.4±01.0 %ID/g
  uptake in kidney: 18±3.5 %ID/g
  uptake in liver: 4.8±0.5 %ID/g
  uptake in lung: 5.0±0.9 %ID/g
  uptake in muscle: 2.0±0.4 %ID/g
  uptake in pancreas: 54±14 %ID/g
  uptake in spleen: 9.5±3.9 %ID/g
  uptake in tumor: 9.9±1.7 %ID/g
A549 tumor xenograft; 30 min post injection
  uptake in blood: 2.0±0.2 %ID/g
  uptake in bone: 2.3±0.6 %ID/g
  uptake in brain: 0.9±0.2 %ID/g
  uptake in heart: 3.5±1.0 %ID/g
  uptake in kidney: 10±1.9 %ID/g
  uptake in liver: 5.7±1.2 %ID/g
  uptake in lung: 3.1±1.0 %ID/g
  uptake in muscle: 2.0±0.6 %ID/g
  uptake in pancreas: 43±11 %ID/g
  uptake in spleen: 7.8±1.6 %ID/g
  uptake in tumor: 7.5±1.9 %ID/g
A549 tumor xenograft; 60 min post injection
  uptake in blood: 1.3±0.1 %ID/g
  uptake in bone: 2.0±0.6 %ID/g
  uptake in brain: 1.1±0.3 %ID/g
  uptake in heart: 3.5±0.9 %ID/g
  uptake in kidney: 6.6±1.0 %ID/g
  uptake in liver: 5.3±1.1 %ID/g
  uptake in lung: 2.3±0.5 %ID/g
  uptake in muscle: 1.8±0.2 %ID/g
  uptake in pancreas: 28±6.3 %ID/g
  uptake in spleen: 5.1±1.8 %ID/g
  uptake in tumor: 7.7±1.9 %ID/g
A549 tumor xenograft; 120 min post injection
  uptake in blood: 1.3±0.9 %ID/g
  uptake in bone: 2.2±1.1 %ID/g
  uptake in brain: 1.8±0.9 %ID/g
  uptake in heart: 3.9±1.5 %ID/g
  uptake in kidney: 5.5±3.1 %ID/g
  uptake in liver: 7.1±2.4 %ID/g
  uptake in lung: 1.9±0.6 %ID/g
  uptake in muscle: 2.3±1.2 %ID/g
  uptake in pancreas: 20±7.1 %ID/g
  uptake in spleen: 4.9±3.1 %ID/g
  uptake in tumor: 8.8±4.8 %ID/g
U87 tumor xenograft; 15 min post injection
  uptake in blood: 3.2±0.2 %ID/g
  uptake in bone: 3.2±1.5 %ID/g
  uptake in brain: 0.8±0.2 %ID/g
  uptake in heart: 4.7±1.2 %ID/g
  uptake in kidney: 23±2.5 %ID/g
  uptake in liver: 7.6±2.9 %ID/g
  uptake in lung: 4.7±0.6 %ID/g
  uptake in muscle: 2.2±0.5 %ID/g
  uptake in pancreas: 62±6.3 %ID/g
  uptake in spleen: 19±6.4 %ID/g
  uptake in tumor: 6.5±1.2 %ID/g
U87 tumor xenograft; 30 min post injection
  uptake in blood: 2.6±0.7 %ID/g
  uptake in bone: 3.5±0.5 %ID/g
  uptake in brain: 0.9±0.2 %ID/g
  uptake in heart: 4.3±0.6 %ID/g
  uptake in kidney: 15±2.1 %ID/g
  uptake in liver: 7.7±1.5 %ID/g
  uptake in lung: 3.4±0.5 %ID/g
  uptake in muscle: 2.2±0.5 %ID/g
  uptake in pancreas: 43±8.2 %ID/g
  uptake in spleen: 13±2.4 %ID/g
  uptake in tumor: 6.0±0.9 %ID/g
U87 tumor xenograft; 60 min post injection
  uptake in blood: 1.6±0.4 %ID/g
  uptake in bone: 3.2±0.8 %ID/g
  uptake in brain: 1.2±0.2 %ID/g
  uptake in heart: 4.2±0.9 %ID/g
  uptake in kidney: 8.0±1.8 %ID/g
  uptake in liver: 6.9±1.4 %ID/g
  uptake in lung: 2.4±0.6 %ID/g
  uptake in muscle: 2.9±0.6 %ID/g
  uptake in pancreas: 28±5.0 %ID/g
  uptake in spleen: 7.0±1.4 %ID/g
  uptake in tumor: 4.2±0.3 %ID/g
U87 tumor xenograft; 120 min post injection
  uptake in blood: 0.8±0.1 %ID/g
  uptake in bone: 1.5±0.2 %ID/g
  uptake in brain: 1.2±0.1 %ID/g
  uptake in heart: 3.6±0.4 %ID/g
  uptake in kidney: 4.2±0.4 %ID/g
  uptake in liver: 8.0±0.7 %ID/g
  uptake in lung: 1.3±0.2 %ID/g
  uptake in muscle: 1.6±0.2 %ID/g
  uptake in pancreas: 15.1±3.2 %ID/g
  uptake in spleen: 3.5±0.4 %ID/g
  uptake in tumor: 3.1±0.8 %ID/g
[4]; [7]
  uptake in blood: 3.0±0.2 %ID/g
  uptake in bone: 2.7±0.6 %ID/g
  uptake in brain: 0.7±0.2 %ID/g
  uptake in heart: 3.9±0.6 %ID/g
  uptake in kidney: 17±2.3 %ID/g
  uptake in liver: 4.4±0.9 %ID/g
  uptake in lung: 5.4±0.6 %ID/g
  uptake in muscle: 2.2±0.8 %ID/g
  uptake in pancreas: 61±8.4 %ID/g
  uptake in spleen: 8.7±2.2 %ID/g
  uptake in tumor: 6.0±1.8 %ID/g
[4]; [8]
  uptake in blood: 2.0±0.4 %ID/g
  uptake in bone: 2.2±0.6 %ID/g
  uptake in brain: 0.8±0.1 %ID/g
  uptake in heart: 3.5±1.0 %ID/g
  uptake in kidney: 9.1±2.8 %ID/g
  uptake in liver: 4.5±1.0 %ID/g
  uptake in lung: 3.3±1.1 %ID/g
  uptake in muscle: 2.0±0.6 %ID/g
  uptake in pancreas: 39±11 %ID/g
  uptake in spleen: 6.5±1.1 %ID/g
  uptake in tumor: 5.3±1.7 %ID/g
[4]; 60 min post injection
  uptake in tumor: 4.8±1.2 %ID/g
[4]; [9]
  uptake in blood: 1.1±0.3 %ID/g
  uptake in bone: 1.7±0.5 %ID/g
  uptake in brain: 0.8±0.1 %ID/g
  uptake in heart: 3.3±0.8 %ID/g
  uptake in kidney: 5.0±1.1 %ID/g
  uptake in liver: 3.8±0.9 %ID/g
  uptake in lung: 2.2±0.5 %ID/g
  uptake in muscle: 2.0±0.6 %ID/g
  uptake in pancreas: 20±7.2 %ID/g
  uptake in spleen: 4.1±1.3 %ID/g
[4]; [10]
  uptake in blood: 0.5±0.2 %ID/g
  uptake in bone: 1.1±0.5 %ID/g
  uptake in brain: 0.9±0.1 %ID/g
  uptake in heart: 2.3±0.4 %ID/g
  uptake in kidney: 2.4±1.1 %ID/g
  uptake in liver: 4.1±0.8 %ID/g
  uptake in lung: 1.1±0.4 %ID/g
  uptake in muscle: 1.6±0.6 %ID/g
  uptake in pancreas: 11±4.6 %ID/g
  uptake in spleen: 2.2±1.1 %ID/g
  uptake in tumor: 3.6±0.7 %ID/g
[5]; 10 mM BCH, relative to control, most cell lines
  inhibition of uptake by BCH: 36-68%
[5]; 10 mM MeAIB, relative to control, most cell lines
  inhibition of uptake by MeAIB: 10-32%
[5]; 30 minutes incubation, without inhibitors, range over the cell lines
  uptake in tumor cells: 5-9 %ID/5×10^5 cells
[5]; AAT cell inhibition assays with MeAIB and BCH
  amino acid transport system mediating uptake / selectivity: mixed AATs, likely but not limited to system A and system L
[6]
  ratio of tumor to muscle: above 2.5
